Holding throughout (assay): cells
For one test, the system named is COR-L88. It is filed as functional, cell-based. Particulars: Homo sapiens.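 Note: growth inhibition of COR-L88 cells, read out with a cell viability assay.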
The next test relates to D-336MG. It is filed as functional, cell-based, Homo sapiens. Particulars: Homo sapiens, D-336MG.
For a further test, the system named is D-542MG. The test is classed as functional, cell-based, Homo sapiens. The following applies: Homo sapiens, D-542MG.
In the next test the test system is EM-2. It is filed as functional, cell-based. Particulars: Homo sapiens.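 Note: growth inhibition of EM-2 cells, read out with a cell viability assay.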
For a further test, the system named is ES7. The test is classed as functional, cell-based, Homo sapiens. The following applies: Homo sapiens, ES7.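 Note: growth inhibition of cultured human ES7 cells, read out as cell viability.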
Another test has as its system GR-ST. It is filed as functional, cell-based. The following applies: Homo sapiens.
A further test has as its system KM12. It is filed as functional, cell-based, Homo sapiens. The following applies: Homo sapiens, KM12.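 Note: KM12 cell growth inhibition, read out with a cell viability assay.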
The subject of another test is KNS-42. It is filed as functional, cell-based, Homo sapiens. The following applies: Homo sapiens, KNS-42.
The test system of a further test is KP-N-YS. The test is classed as functional, cell-based. The following applies: Homo sapiens.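 Note: cell viability assay measuring inhibition of cell line growth.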
A further test relates to LB996-RCC. It is filed as functional, cell-based. The following applies: Homo sapiens.
The next test has as its system MSTO-211H. The test is classed as functional, cell-based, Homo sapiens. The following applies: Homo sapiens, MSTO-211H.
A further test has as its system NMC-G1. The test is classed as functional, cell-based, Homo sapiens. The following applies: Homo sapiens, NMC-G1.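 Note: growth inhibition of the NMC-G1 cell line, measured with a cell viability read-out.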
A further test relates to NOS-1. It is filed as functional, cell-based, Homo sapiens. The following applies: Homo sapiens, NOS-1.
The test system of the next test is Ramos-2G6-4C10. It is filed as functional, cell-based. Particulars: Homo sapiens.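 Note: growth inhibition of the cell line, measured by a cell viability read-out.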
The test system of a further test is 8-MG-BA. The test is classed as functional, cell-based, Homo sapiens. The following applies: Homo sapiens, 8-MG-BA.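 Note: growth inhibition of 8-MG-BA cells, read out with a cell viability assay.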
A further test deals with TE-12. It is filed as functional, cell-based. Particulars: Homo sapiens.
The subject of a further test is KLE. The test is classed as functional, cell-based, Homo sapiens. Particulars: Homo sapiens, KLE.
The test system of another test is SNU-C2B. The test is classed as functional, cell-based, Homo sapiens. Particulars: Homo sapiens, SNU-C2B.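 Note: cell viability readout used to measure compound-driven suppression of SNU-C2B cell proliferation, IC50 marking half-maximal growth inhibition.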
For another test, the system named is SW982. The test is classed as functional, cell-based. The following applies: Homo sapiens.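 Note: growth inhibition of SW982 cells, read out with a cell viability assay.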
Another test relates to TE-11. It is filed as functional, cell-based, Homo sapiens. The following applies: Homo sapiens, TE-11.

For ten molecules, IC50 results are on record in ChEMBL document CHEMBL1201861, “Genomics of Drug Sensitity in Cancer screening data, Wellcome Trust Sanger Institute”.

The term IC50 denotes the point on the concentration scale where inhibition reaches its midpoint.

Some results are limits rather than exact numbers.

Description for 8-MG-BA: SANGER: Inhibition of human 8-MG-BA cell growth in a cell viability assay.
Description for COR-L88: SANGER: Inhibition of human COR-L88 cell growth in a cell viability assay.
Description for D-336MG: SANGER: Inhibition of human D-336MG cell growth in a cell viability assay.
Description for D-542MG: SANGER: Inhibition of human D-542MG cell growth in a cell viability assay.
Description for EM-2: SANGER: Inhibition of human EM-2 cell growth in a cell viability assay.
Description for ES7: SANGER: Inhibition of human ES7 cell growth in a cell viability assay.
Description for GR-ST: SANGER: Inhibition of human GR-ST cell growth in a cell viability assay.
Description for KLE: SANGER: Inhibition of human KLE cell growth in a cell viability assay.
Description for KM12: SANGER: Inhibition of human KM12 cell growth in a cell viability assay.
Description for KNS-42: SANGER: Inhibition of human KNS-42 cell growth in a cell viability assay.
Description for KP-N-YS: SANGER: Inhibition of human KP-N-YS cell growth in a cell viability assay.
Description for LB996-RCC: SANGER: Inhibition of human LB996-RCC cell growth in a cell viability assay.
Description for MSTO-211H: SANGER: Inhibition of human MSTO-211H cell growth in a cell viability assay.
Description for NMC-G1: SANGER: Inhibition of human NMC-G1 cell growth in a cell viability assay.
Description for NOS-1: SANGER: Inhibition of human NOS-1 cell growth in a cell viability assay.
Description for Ramos-2G6-4C10: SANGER: Inhibition of human Ramos-2G6-4C10 cell growth in a cell viability assay.
Description for SNU-C2B: SANGER: Inhibition of human SNU-C2B cell growth in a cell viability assay.
Description for SW982: SANGER: Inhibition of human SW982 cell growth in a cell viability assay.
Description for TE-11: SANGER: Inhibition of human TE-11 cell growth in a cell viability assay.
Description for TE-12: SANGER: Inhibition of human TE-12 cell growth in a cell viability assay.

Turning to `CC1=C2C[C@H]3[C@@H](CC=C4C[C@@H](O)CC[C@@]43C)[C@@H]2CC[C@]12O[C@@H]1C[C@H](C)CN[C@H]1[C@H]2C` [CYCLOPAMINE], the half-maximal inhibitory concentration (IC50) with COR-L88, in the test on D-336MG, in the test with D-542MG, with EM-2, with ES7 and in the test with GR-ST was greater than 16000 nM in each case. Besides, the IC50 in the test with KM12, in the test with KNS-42, with KP-N-YS, in the test with LB996-RCC, in the test with MSTO-211H and with NMC-G1 was greater than 16000 nM throughout. For the same molecule, the IC50 was greater than 16000 nM in the test with NOS-1, greater than 16000 nM with Ramos-2G6-4C10, 13100 nM in the test with 8-MG-BA and greater than 16000 nM with TE-12.

Turning to `CN1CCN(CCOc2cc(OC3CCOCC3)c3c(Nc4c(Cl)ccc5c4OCO5)ncnc3c2)CC1` [SARACATINIB], the IC50 with COR-L88 is greater than 2000 nM; in the test with D-336MG it was 503 nM; with EM-2, 265 nM; in the test with ES7, greater than 2000 nM; in the test on GR-ST, greater than 2000 nM; with KLE, greater than 2000 nM. In addition, the IC50 was greater than 2000 nM in the test on KM12; greater than 2000 nM in the test with KNS-42; greater than 2000 nM in the test with KP-N-YS; 442 nM with LB996-RCC; greater than 2000 nM in the test on MSTO-211H; greater than 2000 nM with NMC-G1. For the same molecule, the half-inhibitory concentration (IC50) was 605 nM in the test on NOS-1; greater than 2000 nM in the test on Ramos-2G6-4C10; greater than 2000 nM in the test with SNU-C2B; 1920 nM in the test with SW982; greater than 2000 nM with 8-MG-BA; 1430 nM in the test with TE-11. The molecule also showed an IC50 with TE-12 of 327 nM.

Regarding `CS(=O)(=O)CCNCc1ccc(-c2ccc3ncnc(Nc4ccc(OCc5cccc(F)c5)c(Cl)c4)c3c2)o1` [LAPATINIB], the IC50 in the test with COR-L88, with D-336MG, with D-542MG, in the test with EM-2, in the test on ES7 and in the test with GR-ST was greater than 2000 nM in each case. The 50% inhibitory concentration (IC50) was greater than 2000 nM in the test on KM12; greater than 2000 nM in the test with KNS-42; greater than 2000 nM in the test on KP-N-YS; 1360 nM with LB996-RCC; greater than 2000 nM in the test on MSTO-211H; greater than 2000 nM in the test on NMC-G1. The IC50 in the test with NOS-1 is greater than 2000 nM; with Ramos-2G6-4C10, greater than 2000 nM; in the test on 8-MG-BA, greater than 2000 nM; in the test on TE-12, 491 nM.

In the case of `CCc1nc(N)nc(N)c1-c1ccc(Cl)cc1` [PYRIMETHAMINE], the IC50 was greater than 20000 nM with COR-L88; greater than 20000 nM with D-336MG; greater than 20000 nM with D-542MG; 12400 nM with EM-2; 14800 nM with ES7; 709 nM with GR-ST. Moreover, the IC50 with KM12 was 2320 nM; with KNS-42 it was greater than 20000 nM; with KP-N-YS it was greater than 20000 nM; in the test with LB996-RCC, greater than 20000 nM; with MSTO-211H it was 7640 nM; in the test with NMC-G1 it was greater than 20000 nM. Moreover, the IC50 was 6660 nM in the test with NOS-1, 5640 nM in the test on Ramos-2G6-4C10, greater than 20000 nM in the test on 8-MG-BA and greater than 20000 nM in the test on TE-12.

As to `CNC(=O)c1cc(Oc2ccc(NC(=O)Nc3ccc(Cl)c(C(F)(F)F)c3)cc2)ccn1` [SORAFENIB], the concentration for half-maximal inhibition (IC50) was greater than 4000 nM in the test with COR-L88; greater than 4000 nM with D-336MG; greater than 4000 nM in the test with D-542MG; 1360 nM in the test on EM-2; greater than 4000 nM in the test on ES7; greater than 4000 nM in the test with GR-ST. In addition, the half-maximal inhibitory concentration (IC50) in the test with KM12 is 1020 nM; in the test with KNS-42, greater than 4000 nM; in the test on KP-N-YS, greater than 4000 nM; with LB996-RCC, greater than 4000 nM; with MSTO-211H it was greater than 4000 nM; in the test on NMC-G1, greater than 4000 nM. Also, the half-inhibitory concentration (IC50) in the test on NOS-1 was 564 nM; in the test with Ramos-2G6-4C10, greater than 4000 nM; with 8-MG-BA it was greater than 4000 nM; in the test on TE-12, greater than 4000 nM.

For the molecule `O=C(/C=C/c1ccccc1)NC(NC(=S)Nc1cccc2cccnc12)C(Cl)(Cl)Cl` (configuration not stated) [SALUBRINAL], the IC50 is greater than 16000 nM in the test with COR-L88; 15100 nM in the test on D-336MG; 13400 nM with D-542MG; greater than 16000 nM in the test with EM-2; greater than 16000 nM in the test with ES7; greater than 16000 nM in the test on GR-ST. The IC50 with KM12, in the test with KNS-42, in the test on KP-N-YS, with LB996-RCC, in the test with MSTO-211H and with NMC-G1 was greater than 16000 nM in each case. Besides, the 50% inhibitory concentration (IC50) with NOS-1 was greater than 16000 nM; in the test on Ramos-2G6-4C10 it was 9900 nM; in the test on 8-MG-BA it was 11000 nM; with TE-12, 11300 nM.

Regarding `C=C1C(=O)O[C@@H]2C3O[C@]3(C)CC/C=C(\C)CC[C@@H]12` (some centres not stated), the IC50 in the test with COR-L88, in the test on D-336MG, with D-542MG, in the test on EM-2, in the test on ES7 and in the test on GR-ST was greater than 5000 nM throughout. The concentration for half-maximal inhibition (IC50) in the test on KM12, with KNS-42, with KP-N-YS, in the test with LB996-RCC, in the test with MSTO-211H and with NMC-G1 was greater than 5000 nM throughout. The 50% inhibitory concentration (IC50) in the test on NOS-1, with Ramos-2G6-4C10, with 8-MG-BA and in the test with TE-12 was greater than 5000 nM in each case.

Take `CO[C@H]1C[C@@H]2CC[C@@H](C)[C@@](O)(O2)C(=O)C(=O)N2CCCC[C@H]2C(=O)O[C@H]([C@H](C)C[C@@H]2CC[C@@H](O)[C@H](OC)C2)CC(=O)[C@H](C)/C=C(\C)[C@@H](O)[C@@H](OC)C(=O)[C@H](C)C[C@H](C)/C=C/C=C/C=C/1C` [SIROLIMUS]: the IC50 is greater than 100 nM in the test with COR-L88; greater than 100 nM in the test with D-336MG; 38.5 nM in the test with EM-2; greater than 100 nM with ES7; 0.846 nM in the test on GR-ST; greater than 100 nM with KLE. Moreover, the half-maximal inhibitory concentration (IC50) is greater than 100 nM with KM12; greater than 100 nM with KNS-42; greater than 100 nM in the test on KP-N-YS; 93.4 nM with LB996-RCC; greater than 100 nM in the test on MSTO-211H; 33.7 nM in the test on NMC-G1. Moreover, the half-maximal inhibitory concentration (IC50) in the test on NOS-1 is 0.871 nM; in the test on Ramos-2G6-4C10, 1.46 nM; with SNU-C2B it was greater than 100 nM; with SW982 it was greater than 100 nM; in the test with 8-MG-BA, greater than 100 nM; in the test on TE-11, 77.2 nM. In the test with TE-12, the IC50 is greater than 100 nM.

As to `CCC(=O)N1CCN(c2ccc(-n3c(=O)ccc4cnc5ccc(-c6cnc7ccccc7c6)cc5c43)cc2C(F)(F)F)CC1` [TORIN1], the concentration for half-maximal inhibition (IC50) is 1110 nM with COR-L88; 266 nM in the test with D-336MG; 115 nM in the test with EM-2; greater than 1200 nM with ES7; 26.5 nM in the test on GR-ST; 65.8 nM with KLE. Moreover, the concentration for half-maximal inhibition (IC50) was 76.4 nM with KM12; 82 nM in the test with KNS-42; greater than 1200 nM in the test with KP-N-YS; 11.4 nM with LB996-RCC; greater than 1200 nM in the test on MSTO-211H; 34.5 nM in the test with NMC-G1. For the same molecule, the IC50 in the test on NOS-1 stood at 2.42 nM; in the test on Ramos-2G6-4C10, 27.5 nM; in the test on SNU-C2B it was 243 nM; in the test with SW982 it was 42.5 nM; with 8-MG-BA, 46.3 nM; in the test with TE-11 it was 23.7 nM. Also, in the test on TE-12, the IC50 worked out at 25.5 nM.

Regarding `Cc1cc(Nc2cc(N3CCN(C)CC3)nc(Sc3ccc(NC(=O)C4CC4)cc3)n2)n[nH]1` [TOZASERTIB], the half-maximal inhibitory concentration (IC50) was greater than 2000 nM in the test on COR-L88; greater than 2000 nM with D-336MG; 266 nM in the test with EM-2; greater than 2000 nM in the test with ES7; greater than 2000 nM with GR-ST; greater than 2000 nM in the test on KLE. For the same molecule, the IC50 was 264 nM with KM12; greater than 2000 nM with KNS-42; 544 nM with KP-N-YS; greater than 2000 nM in the test with LB996-RCC; greater than 2000 nM in the test with MSTO-211H; greater than 2000 nM in the test with NMC-G1. The IC50 with NOS-1 is greater than 2000 nM; in the test on Ramos-2G6-4C10, greater than 2000 nM; in the test with SNU-C2B it was greater than 2000 nM; with SW982, 214 nM; in the test on 8-MG-BA, greater than 2000 nM; with TE-11 it was 150 nM. The IC50 in the test with TE-12 is greater than 2000 nM.
